Data: patent EP2987533B1, “7-substituted piperazin-1-yl fluoroquinolone compounds, their use in the treatment of cancer, pharmaceutical compositions and a method for preparation” (priority 2014, dated 2016)

Legend:
CNS cancer = assay: NCI five-dose SRB assay, subpanel average; conditions: 48 h
A549/ATCC = assay: NCI one-dose SRB growth assay; format: cell-based; conditions: Homo sapiens; A549/ATCC (Non-Small Cell Lung Cancer), 10^-5 M, 48 h; read-out: % Growth Inhibition (GI %)
Procedure: (§1) A primary anticancer assay was performed for an approximately 60 human tumor cell line panel derived from nine neoplastic diseases, in accordance with the protocol of the Drug Evaluation Branch, National Cancer Institute, Bethesda, MD (Monks A. et al., J. Natl. Cancer Inst 1991, 83, 757-766; Boyd M.R. and Paull K.D., Drug. Dev. Res. 1995, 34, 91-109; Shoemaker R.H., Nat. Rev. Cancer 2006, 6, 813-823). Briefly, tested compounds were added to the culture at a single concentration (10^-5M), and the cultures were incubated for 48 h. End point determinations were made with a protein binding dye, sulforhodamine B (SRB). The results for each tested compound were reported as the growth percentage of the treated cells when compared to that of the untreated control cells. The percentage growth was evaluated spectrophotometrically versus controls not treated with test agents.

COLO 205 = assay: NCI one-dose SRB growth assay; format: cell-based; conditions: Homo sapiens; COLO 205 (Colon Cancer), 10^-5 M, 48 h; read-out: % Growth Inhibition (GI %)
Procedure: as §1

SNB-75 = assay: NCI one-dose SRB growth assay; format: cell-based; conditions: Homo sapiens; SNB-75 (CNS Cancer), 10^-5 M, 48 h; read-out: % Growth Inhibition (GI %)
Procedure: as §1

A498 = assay: NCI one-dose SRB growth assay; format: cell-based; conditions: Homo sapiens; A498 (Renal Cancer), 10^-5 M, 48 h; read-out: % Growth Inhibition (GI %)
Procedure: as §1

MALME-3M = assay: NCI one-dose SRB growth assay; format: cell-based; conditions: Homo sapiens; MALME-3M (Melanoma), 10^-5 M, 48 h; read-out: % Growth Inhibition (GI %)
Procedure: as §1

MDA-MB-435 = assay: NCI one-dose SRB growth assay; format: cell-based; conditions: Homo sapiens; MDA-MB-435 (Melanoma), 10^-5 M, 48 h; read-out: % Growth Inhibition (GI %)
Procedure: as §1

T-47D = assay: NCI one-dose SRB growth assay; format: cell-based; conditions: Homo sapiens, T47D; T-47D (Breast Cancer), 10^-5 M, 48 h; read-out: % Growth Inhibition (GI %)
Procedure: as §1

NCI-H23 = assay: NCI one-dose SRB growth assay; format: cell-based; conditions: Homo sapiens; NCI-H23 (Non-Small Cell Lung Cancer), 10^-5 M, 48 h; read-out: % Growth Inhibition (GI %)
Procedure: as §1

BT-549 = assay: NCI one-dose SRB growth assay; format: cell-based; conditions: Homo sapiens; BT-549 (Breast Cancer), 10^-5 M, 48 h; read-out: % Growth Inhibition (GI %)
Procedure: as §1

HOP-92 = assay: NCI one-dose SRB growth assay; format: cell-based; conditions: Homo sapiens; HOP-92 (Non-Small Cell Lung Cancer), 10^-5 M, 48 h; read-out: % Growth Inhibition (GI %)
Procedure: as §1

UACC-257 = assay: NCI one-dose SRB growth assay; format: cell-based; conditions: Homo sapiens; UACC-257 (Melanoma), 10^-5 M, 48 h; read-out: % Growth Inhibition (GI %)
Procedure: as §1

HT29 = assay: NCI one-dose SRB growth assay; format: cell-based; conditions: Homo sapiens, HT-29; HT29 (Colon Cancer), 10^-5 M, 48 h; read-out: % Growth Inhibition (GI %)
Procedure: as §1

RXF 393 = assay: NCI one-dose SRB growth assay; format: cell-based; conditions: Homo sapiens; RXF 393 (Renal Cancer), 10^-5 M, 48 h; read-out: % Growth Inhibition (GI %)
Procedure: as §1

LOX IMVI = assay: NCI one-dose SRB growth assay; format: cell-based; conditions: Homo sapiens; LOX IMVI (Melanoma), 10^-5 M, 48 h; read-out: % Growth Inhibition (GI %)
Procedure: as §1

prostate cancer = assay: NCI five-dose SRB assay, subpanel average; conditions: 48 h
leukemia = assay: NCI five-dose SRB assay, subpanel average; conditions: 48 h
melanoma = assay: NCI five-dose SRB assay, subpanel average; conditions: 48 h
NSC lung cancer = assay: NCI five-dose SRB assay, subpanel average; conditions: 48 h
colon cancer = assay: NCI five-dose SRB assay, subpanel average; conditions: 48 h
renal cancer = assay: NCI five-dose SRB assay, subpanel average; conditions: 48 h
[1] = test system: full panel of about 60 human tumor cell lines; assay: NCI five-dose SRB assay, full panel mean; conditions: 48 h
ovarian cancer = assay: NCI five-dose SRB assay, subpanel average; conditions: 48 h
OVCAR-8 = assay: NCI one-dose SRB growth assay; format: cell-based; conditions: Homo sapiens; OVCAR-8 (Ovarian Cancer), 10^-5 M, 48 h; read-out: % Growth Inhibition (GI %)
Procedure: as §1

MDA-MB-468 = assay: NCI one-dose SRB growth assay; format: cell-based; conditions: Homo sapiens; MDA-MB-468 (Breast Cancer), 10^-5 M, 48 h; read-out: % Growth Inhibition (GI %)
Procedure: as §1

[2] = test system: 60 human tumor cell line panel; assay: NCI 60 cell line one-dose SRB primary anticancer assay; format: cell-based; conditions: 60 cell lines assay in one dose, 10µM (title; head prints 10.0 mM), 48 h
Procedure: as §1

[3] = Homo sapiens, read-out: GI50 (median growth inhibitory)
[4] = Homo sapiens, read-out: LC50 (median lethal)

O=c1[nH]cc(F)c(=O)[nH]1 [Compound 5-FU, 5-fluorouracil, reference compound]
GI50 (CNS cancer; [3]): 72.1 µM | CC50 (CNS cancer; [4]): > 100 µM | TGI (total growth inhibitory) (CNS cancer; average over CNS cancer subpanel, five concentrations): c (Compounds showed values > 100µM) | inhibition at 10 µM (A549/ATCC): 34.2% | inhibition at 10 µM (COLO 205): 40.2% | inhibition at 10 µM (SNB-75): 65.9% | inhibition at 10 µM (A498): > 100% | inhibition at 10 µM (MALME-3M): 58.2% | inhibition at 10 µM (MDA-MB-435): 36.6% | inhibition at 10 µM (T-47D): 56.7% | inhibition at 10 µM (NCI-H23): 39% | inhibition at 10 µM (BT-549): 37.8% | inhibition at 10 µM (HOP-92): 50.6% | inhibition at 10 µM (UACC-257): 19.5% | inhibition at 10 µM (HT29): 27.1% | inhibition at 10 µM (RXF 393): 34.3% | inhibition at 10 µM (LOX IMVI): 30.4% | GI50 (prostate cancer; [3]): 22.7 µM | CC50 (prostate cancer; [4]): > 100 µM | TGI (total growth inhibitory) (prostate cancer; average over prostate cancer subpanel, five concentrations): c (Compounds showed values > 100µM) | GI50 (leukemia; [3]): 15.1 µM | CC50 (leukemia; [4]): > 100 µM | TGI (total growth inhibitory) (leukemia; average over leukemia subpanel, five concentrations): c (Compounds showed values > 100µM) | GI50 (melanoma; [3]): 70.6 µM | CC50 (melanoma; [4]): > 100 µM | TGI (total growth inhibitory) (melanoma; average over melanoma subpanel, five concentrations): c (Compounds showed values > 100µM) | GI50 (NSC lung cancer; [3]): > 100 µM | CC50 (NSC lung cancer; [4]): > 100 µM | TGI (total growth inhibitory) (NSC lung cancer; average over NSC lung cancer subpanel, five concentrations): c (Compounds showed values > 100µM) | GI50 (colon cancer; [3]): 8.4 µM | CC50 (colon cancer; [4]): > 100 µM | TGI (total growth inhibitory) (colon cancer; average over colon cancer subpanel, five concentrations): c (Compounds showed values > 100µM) | GI50 (renal cancer; [3]): 45.6 µM | CC50 (renal cancer; [4]): > 100 µM | TGI (total growth inhibitory) (renal cancer; average over renal cancer subpanel, five concentrations): c (Compounds showed values > 100µM) | GI50 ([1]; Homo sapiens, read-out: GI50 MG-MID (Full panel mean-graph midpoint)): 22.6 µM | CC50 ([1]; Homo sapiens, read-out: LC50 MG-MID (Full panel mean-graph midpoint)): > 100 µM | TGI MG-MID (Full panel mean-graph midpoint) ([1]; full panel, five concentrations): c (Compounds showed values > 100µM) | GI50 (ovarian cancer; [3]): 61.4 µM | CC50 (ovarian cancer; [4]): > 100 µM | TGI (total growth inhibitory) (ovarian cancer; average over ovarian cancer subpanel, five concentrations): c (Compounds showed values > 100µM)

CCn1cc(C(=O)O)c(=O)c2cc(F)c(N3CCN(S(=O)(=O)c4c(C)cc(C)cc4C)CC3)cc21 [Compound 6a]
inhibition at 10 µM (A549/ATCC): 22% | inhibition at 10 µM (COLO 205): < 10% | inhibition at 10 µM (SNB-75): 29.2% | inhibition at 10 µM (A498): 21.1% | inhibition at 10 µM (OVCAR-8): 18.5% | inhibition at 10 µM (MALME-3M): < 10% | inhibition at 10 µM (MDA-MB-435): 10.9% | inhibition at 10 µM (T-47D): 25.9% | inhibition at 10 µM (NCI-H23): 22.3% | inhibition at 10 µM (BT-549): 26.3% | inhibition at 10 µM (HOP-92): 12.6% | inhibition at 10 µM (MDA-MB-468): 19.7% | inhibition at 10 µM (UACC-257): < 10% | inhibition at 10 µM (HT29): < 10% | inhibition at 10 µM (RXF 393): 11.1% | inhibition at 10 µM (LOX IMVI): 38.7% | PCE (Positive cytotoxic effect: ratio between number of cell lines with percentage growth inhibition from 10 to >100 and total number of cell lines) [2]: 46/58 | RGI % (Range of growth inhibition percentage) [2]: 66.90 to 10.12% | inhibition at 10 µM ([2]; Homo sapiens, read-out: MGI % (Mean growth inhibition percentage)): 18.3%
